One experiment deals with T1, human GPR40 (Homo sapiens, UniProt O14842).
T1 construct: expressed in transfected cells
T1 sequence (O14842 whole entry): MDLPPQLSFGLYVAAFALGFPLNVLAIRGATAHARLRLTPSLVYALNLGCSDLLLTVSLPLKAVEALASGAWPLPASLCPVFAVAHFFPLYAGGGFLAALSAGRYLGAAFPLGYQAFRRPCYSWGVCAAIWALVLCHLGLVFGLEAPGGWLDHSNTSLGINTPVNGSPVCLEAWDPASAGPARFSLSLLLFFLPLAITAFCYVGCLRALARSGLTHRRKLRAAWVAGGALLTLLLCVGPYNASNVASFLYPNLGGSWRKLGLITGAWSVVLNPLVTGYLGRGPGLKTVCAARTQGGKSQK
Kind of experiment: Inositol Phosphate Turnover (IP1) Assay. The experiment is classed as cell-based. The conditions noted are these: HEK cells stably expressing human GPR40; CisBio IP-One kit; 60 minutes at 37 degrees; read-out: Human IP1 EC50. The procedure:
Human GPR40 stable cell-lines were generated in HEK cells. The expression plasmids were transfected using lipofectamine (Life Technologies) following manufacturer's instructions. Stable cell-lines were generated following drug selection and single cell cloning. The assay was performed in 384-well format. HEK cells stably expressing human GPR40 were plated at 7500 cells per well in growth medium (DMEM/10% fetal calf serum). Cell plates were then incubated 16 hours at 37 degrees in a 5% CO2 incubator. Measurement of Inositol Phosphate Turnover (IP1) was performed using the CisBio IP-One kit (Part number 62IPAPEB). After the 16 hour incubation, the growth media was removed by centrifugation using the BlueWasher (AusWasher GUI Ver. v1.0.1.8) Protocol #21-“Light Dry” and 10 ul of stimulation buffer (prepared as described in the kit) was added to each well. In a separate plate, compounds were diluted in DMSO (200-fold over the final concentration in the assay well) and 50 nl was acoustically transferred to the appropriate well in the assay cell plate. The plates were then incubated for 60 minutes at 37 degrees in a 5% CO2 incubator. 10 ul of detection buffer (also prepared as described in the IP-One kit) was added to each well and the plates were incubated at room temperature for 60 minutes in the dark. The plates were then read in a Perkin Elmer EnVision or equivalent reader able to measure FRET. […] Data was normalized to % activity using a reference compound and EC50s determined using a standard 4-parameter fit.
On to `C[C@H](C(=O)O)[C@H](c1ccc2c(c1)OC1(CC2)CCN([C@H](C)c2cc(C(F)(F)F)ccc2C(F)(F)F)CC1)C1CC1` [Example 130, Sodium (2S,3R)-3-(1′-((R)-1-(2,5-Bis(trifluoromethyl)phenyl)ethyl)spiro[chromane-2,4′-piperidin]-7-yl)-3-cyclopropyl-2-methylpropanoate], for which the concentration giving a half-maximal response (EC50) is 3.1 nM. Consider `CC(c1nc(C(F)(F)F)ccc1Cl)N1CCC2(CCc3ccc([C@H](C4CC4)[C@H](C)C(=O)O)cc3O2)CC1` (single isomer, unassigned) [Example 31], for which the 50% effective concentration (EC50) was 49.9 nM. The same measure, in the same setting: the figure for `C[C@H](C(=O)O)[C@H](c1ccc2c(c1)OC1(CC2)CCN(c2ccnc(C(F)(F)F)n2)CC1)C1CC1` [Example 56, sodium (2S3R)-3-cyclopropyl-2-methyl-3-(1′-(2-(trifluoromethyl)pyrimidin-4-yl)spiro[chroman-2,4′-piperidin]-7-yl)propanoate] is 856 nM. Consider `CCC(c1cc(C(F)(F)F)cc(Cl)c1F)N1CCC2(CCc3ccc([C@H](C4CC4)[C@H](C)C(=O)O)cc3O2)CC1` (stereo partly drawn) [Example 109, (2S,3R)-3-(1′-(1-(3-chloro-2-fluoro-5-(tri-fluromethyl)phenyl)propyl)spiro[chroman-2,4′-piperidin]-7-yl)-3-cyclopropyl-2-methylpropanoic acid], for which the concentration for a half-maximal effect (EC50) is 2.51 nM. On to `C[C@H](C(=O)O)[C@H](c1ccc2c(c1)OC1(CC2)CC(NCc2cc(C(F)(F)F)ccc2C(F)(F)F)C1)C1CC1` (single isomer, unassigned) [Example 95], for which the EC50 was 48.6 nM. As for `C[C@H](C(=O)O)[C@H](c1ccc2c(c1)OC1(CC2)CCN(S(=O)(=O)c2cc(Cl)ccc2Cl)CC1)C1CC1` [Example 46, (2S,3R)-3-cyclopropyl-3-(1′-((2,5-dichloro-phenyl)sulfonyl)spiro [chroman-2,4′-piperidin]-7-yl)-2-methyl-propanoic acid], the half-maximal effective concentration (EC50) was found to be 22.6 nM.

Regarding `C[C@H](C(=O)O)[C@H](c1ccc2c(c1F)OC1(CC2)CCN(Cc2cc(C(F)(F)F)ccc2C(F)(F)F)CC1)C1CC1` [Example 8, (2S,3R)-3-(1′-(2,5-bis-(trifluoromethyl)benzyl)-8-fluoro-spiro[chroman-2,4′-piperidin]-7-yl)-3-cyclopropyl-2-methyl-propanoic acid], the concentration giving a half-maximal response (EC50) stood at 20.6 nM. Turning to `C[C@H](C(=O)O)[C@H](c1ccc2c(c1)OC1(CC2)CC(N[C@H](C)c2cc(C(F)(F)F)ccc2C(F)(F)F)C1)C1CC1` (stereo partly drawn) [Example 91, (2S,3R)-3-(3′-((1-(2,5-bis(trifluoromethyl)phenyl)ethyl)amino)spiro[chroman-2,1′-cyclobutan]-7-yl)-3-cyclopropyl-2-methylpropanoic Acid], the concentration for a half-maximal effect (EC50) was determined as 8.62 nM. With `CCCn1cc(-c2ccc(OC(F)(F)F)c(C(C)N3CCC4(CCc5ccc([C@H](C6CC6)[C@H](C)C(=O)O)cc5O4)CC3)c2)cn1` (single isomer, unassigned) [Example 113, sodium (2S,3R)-3-cyclopropyl-2-methyl-3-(1′-S or R)-1-(5-(1-propyl-1H-pyrazol-4-yl)-2-(trifluoromethoxy)phenyl)eth-yl)spiro[chroman-2,4′-piperidin]-7-yl)propanoate], the EC50 was 579 nM. In the case of `CC(c1cc(Cl)ccc1OC(F)(F)F)N1CCC2(CCc3ccc([C@H](C4CC4)[C@H](C)C(=O)O)cc3O2)CC1` (stereo partly drawn) [Example 133, Sodium (2S,3R)-3-(1′-(1-(5-chloro-2-(trifluoromethoxy)phenyl)ethyl)spiro[chromane-2,4′-piperidin]-7-yl)-3-cyclopropyl-2-methylpropanoate], the 50% effective concentration (EC50) turned out to be 3.3 nM. As to `C[C@H](C(=O)O)[C@H](c1ccc2c(c1)OC1(CC2)CCC(N(C)c2cc(C(F)(F)F)ccc2C(F)(F)F)CC1)C1CC1` (stereo partly drawn) [Example 70, (2S,3R)-3-(4′-((2,5-bis(trifluoromethyl)phenyl) (methyl)amino)spiro [chroman-2,1′-cyclohexan]-7-yl)-3-cyclopropyl-2-methylpropanoic acid], the half-maximal effective concentration (EC50) is 1.74 nM.

As for `C[C@H](C(=O)O)[C@H](c1ccc2c(c1)OC1(CC2)CCN(Cc2cc(C(F)(F)F)ccc2F)CC1)C1CC1` [Example 27, (2S,3R)-3-cyclopropyl-3-(1′-(2-fluoro-5-(trifluoromethyl)benzyl)spiro-[chroman-2,4′-piperidin]-7-yl)-2-methylpropanoic Acid], the EC50 is 49.5 nM. Take `CC(c1cc(-c2ccoc2)ccc1OC(F)(F)F)N1CCC2(CCc3ccc([C@H](C4CC4)[C@H](C)C(=O)O)cc3O2)CC1` (single isomer, unassigned) [Example 118, (2S,3R)-3-cyclopropyl-3-(1′-((S or R)-1-(5-(furan-3-yl)-2-(trifluoromethoxy)phenyl)ethyl)spiro[chroman-2,4′-piperidin]-7-yl)-2-methylpropanoic acid]: the 50% effective concentration (EC50) was found to be 2.29 nM. Same read-out and setting: as for `CC(c1cc(C(F)(F)F)ccc1C(F)(F)F)N(C)C1CC2(CCc3ccc([C@H](C4CC4)[C@H](C)C(=O)O)cc3O2)C1` (stereo partly drawn) [Example 99, (2S,3R)-3-(3′-((1-(2,5-bis(trifluoromethyl)phenyl)ethyl)(methyl)amino)spiro[chroman-2,1′-cyclobutan]-7-yl)-3-cyclopropyl-2-methylpropanoic Acid], the figure is 1.62 nM.

Regarding `C[C@H](C(=O)O)[C@H](c1ccc2c(c1F)OC1(CC2)CCN([C@H](C)c2cc(C(F)(F)F)ccc2C(F)(F)F)CC1)C1CC1` [Example 6, (2S,3R)-3-(1′-((R)-1-(2,5-bis(trifluoromethyl)-phenyl)ethyl)-8-fluoro-spiro[chroman-2,4′-piperidin]-7-yl)-3-cyclo-propyl-2-methyl-propanoic acid], the 50% effective concentration (EC50) was 12.1 nM. For `C[C@H](C(=O)O)[C@H](c1ccc2c(c1)OC1(CCCN([C@@H](C)c3cc(C(F)(F)F)ccc3C(F)(F)F)CC1)CC2)C1CC1` (single isomer, unassigned) [Example 51, (2S,3R)-3-((R or S)-1-((S)-1-(2,5-bis (trifluoromethyl)phenyl)ethyl)spiro[azepane-4,2′-chroman]-7′-yl)-3-cyclopropyl-2-methylpropanoic acid], the half-maximal effective concentration (EC50) is 14.1 nM. For `Cc1ccc(OC(F)(F)F)c(C(C)N2CCC3(CCc4ccc([C@H](C5CC5)[C@H](C)C(=O)O)cc4O3)CC2)c1` (mixture of isomers) [Example 112], the EC50 worked out at 21.5 nM. For the compound `CC(c1cc(Cl)ccc1OC(F)F)N1CCC2(CCc3ccc([C@H](C4CC4)[C@H](C)C(=O)O)c(F)c3O2)CC1` (single isomer, unassigned) [Example 34, (2S,3R)-3-(1′-((S or R)-1-(5-chloro-2-(difluoro-methoxy)phenyl)ethyl)-8-fluorospiro-[chroman-2,4′-piperidin]-7-yl)-3-cyclopropyl-2-methylpropanoic acid], the EC50 worked out at 8.9 nM. Turning to `Cc1cc(-c2ccc(OC(F)(F)F)c(C(C)N3CCC4(CCc5ccc([C@H](C6CC6)[C@H](C)C(=O)O)cc5O4)CC3)c2)n(C)n1` (mixture of isomers) [Example 114, (2S,3R)-3-cyclopropyl-3-(1′-((RS)-1-(5-(1,3-dimethyl-1H-pyrazol-5-yl)-2-(trifluoromethoxy)phenyl)eth-yl)spiro[chroman-2,4′-piperidin]-7-yl)-2-methylpropanoic acid], the EC50 is 91.6 nM.

On to `C[C@H](C(=O)O)[C@H](c1ccc2c(c1)OC1(CC2)CC(N(C)Cc2cc(C(F)(F)F)ccc2C(F)(F)F)C1)C1CC1` (single isomer, unassigned) [Example 97], for which the EC50 worked out at 16.2 nM.

With `CC(c1cc(Cl)cc(Cl)c1OC(F)F)N1CCC2(CCc3ccc([C@H](C4CC4)[C@H](C)C(=O)O)cc3O2)CC1` (single isomer, unassigned) [Example 80, (2S,3R)-3-cycloprop-3-(1′-((S or R)-1-(3,5-dichloro-2-(difluoro-methoxy)phenyl)-ethyl)spiro[chroman-2,4′-piperidin]-7-yl)-2-methylpropanoic acid], the EC50 was 3.22 nM. `C[C@H](C(=O)O)[C@H](c1ccc2c(c1)OC1(CCCN([C@H](C)c3cc(C(F)(F)F)ccc3C(F)(F)F)CC1)CC2)C1CC1` (single isomer, unassigned) [Example 49, (2S,3R)-3-((R or S)-1-((R)-1-(2,5-bis (trifluoromethyl)phenyl)ethyl)spiro[azepane-4,2′-chroman]-7′-yl)-3-cyclopropyl-2-methylpropanoic acid]: the concentration for a half-maximal effect (EC50) is 0.527 nM. The same measure, in the same setting: as for `C[C@H](C(=O)O)[C@H](c1ccc2c(c1)OC1(CC2)CCN(S(=O)(=O)c2ccc(C(F)(F)F)cc2Cl)CC1)C1CC1` [Example 26, (2S,3R)-3-(1′-((2-chloro-4-(trifluoromethyl)-phenyl)sulfonyl)spiro [chroman-2,4′-piperidin]-7-yl)-3-cyclopropyl-2-methylpropanoic acid], the figure is 97.8 nM.

The experiment is the same for the next values; noted with them: Human IP1 EC50 (nM), HEK cells stably expressing human GPR40; CisBio IP-One kit; 60 minutes at 37 degrees.
`CC(c1cc(C(F)(F)F)cc(Cl)c1F)N1CCC2(CCc3ccc([C@H](C4CC4)[C@H](C)C(=O)O)cc3O2)CC1` (single isomer, unassigned) [Example 108, (2S,3R)-3-(1′-((R or S)-1-(3-chloro-2-fluoro-5-(trifluoromethyl)phenyl)ethyl)spiro-[chroman-2,4′-piperidin]-7-yl)-3-cyclopropyl-2-methylpropanoic Acid] displayed an EC50 of 15.8 nM.

A word on the EC50: it is the midpoint of the concentration-response curve.
